Data: patent US11591366B2, “Macrocyclic compounds and methods of preventing or treating pain” (SOCPRA SCIENCES SANTÉ ET HUMAINES S.E.C., priority 2017, dated 2023)

Columns and labels:
Plasma stability assay = assay type: in vitro ADME; settings: rat plasma at 37° C.
Description: Rat plasma was obtained by centrifugation of rat blood (13000 rpm, 5 min, 4° C.). […] Proteolytic degradation was quenched by adding 70 μL of acetonitrile/ethanol (1:1), 0.5% nicotinamide solution and vortexing. […] Data were analyzed using GraphPad Prism 7's one phase decay equation.

[1] = molecular target: T1, hNTS1 (β-arrestin 2 recruitment) (Homo sapiens, UniProt P30989); test: BRET biosensor assay, β-arrestin 2 recruitment; assay type: cell-based
T1 construct: expressed in transfected cells; host or cells: CHO-K1, transient transfection with PEI
T1 sequence (P30989 whole entry): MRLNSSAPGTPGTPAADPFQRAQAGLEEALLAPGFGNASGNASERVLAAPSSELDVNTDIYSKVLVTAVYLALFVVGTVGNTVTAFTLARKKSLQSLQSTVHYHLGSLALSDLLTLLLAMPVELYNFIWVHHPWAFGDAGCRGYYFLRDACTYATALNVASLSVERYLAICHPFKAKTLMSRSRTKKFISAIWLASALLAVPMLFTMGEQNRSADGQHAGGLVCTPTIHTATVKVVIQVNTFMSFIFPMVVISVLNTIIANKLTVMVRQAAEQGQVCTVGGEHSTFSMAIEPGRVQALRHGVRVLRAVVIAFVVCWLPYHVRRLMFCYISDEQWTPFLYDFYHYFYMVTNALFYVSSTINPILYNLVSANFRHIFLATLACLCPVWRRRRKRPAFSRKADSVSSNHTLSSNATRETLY
T1 sequence (P32121 whole entry partner): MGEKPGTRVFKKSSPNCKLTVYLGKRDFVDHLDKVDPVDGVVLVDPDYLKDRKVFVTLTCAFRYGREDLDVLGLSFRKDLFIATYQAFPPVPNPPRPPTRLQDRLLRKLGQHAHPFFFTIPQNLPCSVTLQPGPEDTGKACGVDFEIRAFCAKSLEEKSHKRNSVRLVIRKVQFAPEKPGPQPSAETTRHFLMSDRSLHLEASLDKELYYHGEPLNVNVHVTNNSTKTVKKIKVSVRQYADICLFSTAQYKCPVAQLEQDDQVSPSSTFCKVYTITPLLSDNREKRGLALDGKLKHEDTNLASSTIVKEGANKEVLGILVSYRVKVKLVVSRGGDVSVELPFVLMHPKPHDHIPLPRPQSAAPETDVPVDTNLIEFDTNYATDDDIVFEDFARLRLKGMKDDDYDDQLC
Description: CHO-K1 cells were cultured in DMEM-F12 supplemented with 10% FBS, 100 U/mL penicillin, 100 μg/mL streptomycin, and 20 mM HEPES at 37° C. in a humidified chamber at 5% CO2. Cells were seeded into T75 flasks at a density of 20 000 cells/cm^2; 24 h later, cells were transfected with plasmids coding for hNTS1-Green fluorescent protein 10(GFP10)/Rluc (Renilla Luciferase)II-β-arrestin 1 or hNTS1-GFP10/RlucII-β-arrestin2, or with hNTS1/Gαq-RlucII/Gβ1/IGFP10-Gγ1 or hNTS1/Gα13-RlucII/Gβ1/GFP10-Gγ1 using polyethylenimine (PEI). Cells were transferred into 96-well plates at a concentration of 50 000 cells/well 24 h after transfection and incubated at 37° C. overnight. They were then washed with PBS and 90 μL HBSS was added in each well. […] After stimulation, coelenterazine 400A was added in each well to a final concentration of 5 μM and the plate was read using filter selected for BRET2 measurement (BRET2 High efficiency filter set, λemRlucII: 410±80 nm, λemGFP10: 515±40 nm) on a Mithras 2 plate reader (Berthold Technologies, Tennessee, USA). BRET2 ratio was determined as GFP10em/RlucIIem. […] EC50 (Effective Concentration 50) values were determined using the dose response-stimulation log(agonist) vs response (three parameters) and represent the mean±SEM of at least three separate experiments, each performed in triplicate.
NTS1 is capable of activating several signaling pathways, thus the activation of Gαq, Gα13, β-arrestin 1 and β-arrestin 2 pathways was monitored. The ability of compounds of the invention to activate the NTS1 receptor was assessed using Bioluminescence Resonance Energy Transfer (BRET)-based biosensors, reporting the dissociation of G proteins (Table III, column EC50 Gq) and the recruitment of β-arrestins to the receptor (Table III, column EC50 βarr).

hNTS1 (Gαq pathway) = molecular target: T2, hNTS1 (Gαq pathway) (Homo sapiens, UniProt P30989); test: BRET biosensor assay, Gαq dissociation; assay type: cell-based
T2 construct: expressed in transfected cells; host or cells: CHO-K1, transient transfection with PEI
T2 sequence (P30989 whole entry): as the sequence (P30989 whole entry) above
Description: CHO-K1 cells were cultured in DMEM-F12 supplemented with 10% FBS, 100 U/mL penicillin, 100 μg/mL streptomycin, and 20 mM HEPES at 37° C. in a humidified chamber at 5% CO2. Cells were seeded into T75 flasks at a density of 20 000 cells/cm^2; 24 h later, cells were transfected with plasmids coding for hNTS1-Green fluorescent protein 10(GFP10)/Rluc (Renilla Luciferase)II-β-arrestin 1 or hNTS1-GFP10/RlucII-β-arrestin2, or with hNTS1/Gαq-RlucII/Gβ1/IGFP10-Gγ1 or hNTS1/Gα13-RlucII/Gβ1/GFP10-Gγ1 using polyethylenimine (PEI). Cells were transferred into 96-well plates at a concentration of 50 000 cells/well 24 h after transfection and incubated at 37° C. overnight. […] After stimulation, coelenterazine 400A was added in each well to a final concentration of 5 μM and the plate was read using filter selected for BRET2 measurement (BRET2 High efficiency filter set, λemRlucII: 410±80 nm, λemGFP10: 515±40 nm) on a Mithras 2 plate reader (Berthold Technologies, Tennessee, USA). BRET2 ratio was determined as GFP10em/RlucIIem. […] EC50 (Effective Concentration 50) values were determined using the dose response-stimulation log(agonist) vs response (three parameters) and represent the mean±SEM of at least three separate experiments, each performed in triplicate.
NTS1 is capable of activating several signaling pathways, thus the activation of Gαq, Gα13, β-arrestin 1 and β-arrestin 2 pathways was monitored. […]

Sprague-Dawley rats [2] = test: Formalin test (tonic pain); assay type: in vivo; settings: rat, i.t., 30 μg/kg
Description: (§1) Experiments were performed with adult male Sprague-Dawley rats, weighing 225-300 g (Charles River laboratories, St-Constant, Canada). Rats were housed two per cage on Aspen shavings in a quiet room and kept on a 12 h light/dark cycle and allowed ad libitum access to food and water. The experimental procedures in this study were approved by the Animal Care Committee of Université de Sherbrooke (animal care protocol 035-13) and were in accordance with policies and directives of the Canadian Council on Animal Care.
5 min after intrathecal injection of compounds at 30 μg/kg, the rats received 50 μl of diluted 2% formaldehyde (i.e. 5% formalin; Bioshop, Burlington, Ontario) into the plantar surface of the right hind paw. […] Nociceptive behaviors were assessed using a weighted score as described previously. […] The weighted average pain intensity score ranging from 0 to 3 was then calculated by multiplying the time spent in each category by the category weight, summing these products, and dividing by the total time in a given time interval. The pain score was thus calculated from the following formula (1T1+2T2+3T3)/180 where T1, T2, and T3 are the durations (in seconds) spent in behavioral categories 1, 2, or 3, respectively, during each 180-sec block. […]
Data are expressed as mean±standard errors of the mean (SEM). […]

Sprague-Dawley rats [3] = test: Body temperature (hypothermia); assay type: in vivo; settings: rat; text says i.v., figure legend and method i.t.
Description: Body temperature was measured using a thermistor probe inserted into the rectum of adult Sprague-Dawley rats. Prior to testing, animals were individually acclimatized to manipulations and thermistor probe 5 min/day for three consecutive days. On the test day, temperature was measured before (baseline) and each 10 min for up to 60 min following intrathecal drug administration of compounds. […] Changes in body temperature (Δ body temp) were determined from baseline for each time and each animal. Data represent the mean±SEM of 3-16 rats for each condition.
(§2) Data are expressed as mean±standard errors of the mean (SEM). All graphs and statistical analysis were performed using GraphPad Prism™ 7 (GraphPad software, La Jolla, Calif., USA). […] A difference in response was considered significant with p-values *p<0.05, **p<0.01, and ***p<0.001. […] Then, ED values were determined using the dose-response-stimulation log(agonist) vs response (three parameters).

rNTS2 receptor = molecular target: T3, rNTS2 receptor (Rattus norvegicus, UniProt Q63384); test: Competitive radioligand binding assay on the rNTS2 receptor; settings: 1 μM macrocycle dose; read-out: NTS2 % displ at 1 μM (radiolabeled neurotensin displaced)
T3 construct: expressed in transfected cells; host or cells: DRG-F11 cells, transient transfection, membranes
T3 sequence (Q63384 1-416): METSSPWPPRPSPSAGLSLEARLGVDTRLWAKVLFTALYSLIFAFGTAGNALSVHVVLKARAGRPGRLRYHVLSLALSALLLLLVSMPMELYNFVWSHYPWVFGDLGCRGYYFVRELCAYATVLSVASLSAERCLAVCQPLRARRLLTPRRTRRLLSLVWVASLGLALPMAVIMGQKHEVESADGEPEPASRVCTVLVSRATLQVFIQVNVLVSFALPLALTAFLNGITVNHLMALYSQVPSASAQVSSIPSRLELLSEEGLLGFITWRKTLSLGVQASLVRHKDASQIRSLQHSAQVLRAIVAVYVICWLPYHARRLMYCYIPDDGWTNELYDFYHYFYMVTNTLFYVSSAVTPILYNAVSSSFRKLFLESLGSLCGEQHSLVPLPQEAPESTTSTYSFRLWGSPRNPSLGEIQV
Description: DRG-F11 cells were cultured in DMEM supplemented with 10% FBS, 100 U/mL penicillin, 100 μg/mL streptomycin, and 20 mM HEPES.
Membranes were prepared by scraping cells off the culture dish with 50 mM Tris ph 7.5 and centrifuged at 15,000 g for 5 min at 4° C. The pellet was resuspended in 10 mM Tris, 1 mM EDTA pH 7.5 and sonicated for 30 s prior to be centrifugated at 15,000 g for 30 min at 4° C. The pellet was then re-suspended in binding 9 buffer. […] All other steps in binding experiments were unchanged comparing to the one using the NTS1 receptor.

rats = test: Blood pressure (hypotension); assay type: in vivo, rat; settings: 0.01 mg/kg
Description: Mean, systolic and diastolic arterial blood pressure and a heart rate were measured through a catheter (PE 50 filled with heparinized saline) inserted in the right carotid artery and connected to a Micro-Med™ transducer (model TDX-300, USA) linked to a blood pressure Micro-Med™ analyzer (model BPA-100c). Another catheter (PE 10 filled with heparinized saline) was inserted in the left jugular vein for injection of test compounds at 0.01 mg/kg (volume 1 mL/kg, 5-10 s) or 0.9% saline. Blood pressure was recorded each second for up to 900 seconds following intravenous injection.

Sprague-Dawley rats [4] = test: Tail-flick test (acute pain); assay type: in vivo; settings: rat
Description: as §1
Acute pain was assessed using the tail-flick test (Tail-Flick Analgesia meter V2.00, Colombus Instruments, Columbus, Ohio, USA). Tail-flick test measures sensitivity to a high-intensity light beam focused on the rat tail. The tail-flick apparatus was set at a light intensity of 6 and a cutoff of 10 sec. The latency, in seconds, to flick the tail out of the path of the light beam corresponds to the measure of pain sensitivity or analgesia.
Before testing, animals were individually acclimatized to manipulations and behavioral apparatus 5 min/day for three consecutive days. On the test day, latencies baseline measures were taken before drug injection to provide a mean baseline. […] The effects of compounds or saline on thermal nociception were assessed every 10 min for up to 60 min following i.t. administration.
Tail-flick latencies were converted into the percent maximal possible effect (% MPE) at the time of maxima peak of analgesia. % MPE were calculated according to the following formula: % MPE=[(Test latency)−(Saline latency)]/[(Cutoff)−(Saline latency)]×100. Data are expressed as mean±SEM of 3-8 animals for each different compound.
as §2

CCC(C)[C@H](NC(=O)[C@@H]1Cc2ccc(O)c(c2)CC=CCNCCC[C@H](N)C(=O)N[C@@H](CCCCN)C(=O)N2CCC[C@H]2C(=O)N1)C(=O)N[C@@H](CC(C)C)C(=O)O (some centres unmarked) [Compound 7, c[Orn(All)KPY(All)]IL]
half-life at […] (Plasma stability assay): 30 min
EC50 [1]: 3 ± 0.05 nM
EC50 (hNTS1 (Gαq pathway)): 3 ± 0.05 nM
Pain score during the inflammatory phase (AUC) (Sprague-Dawley rats [2]): significantly reduced
ED50, hypothermia (from AUC) (Sprague-Dawley rats [3]): 1.96 μ/kg
inhibition at 1 µM (rNTS2 receptor): 66%
Hypotension (I.V.) (rats): Triphasique
Arterial blood pressure response (rats; rat, i.v.): triphasic
Blood pressure drop, first phase (rats; rat, i.v.): about −25 mmHg
Blood pressure in phase 3 (rats; rat, i.v.): slowly returned towards baseline
ED50, tail-flick latency (from AUC) (Sprague-Dawley rats [4]; i.t. injection): 4.63 µg/kg
Maximal possible effect (MPE) (Sprague-Dawley rats [4]; i.t., 30 μg/kg, 10 min post-injection): 50%
Dose at which the analgesic effect reached a plateau (Sprague-Dawley rats [4]; i.t., tail-flick): around 10 μg/kg
Tail-flick latency versus saline/baseline (Sprague-Dawley rats [4]; intrathecal, 30 μg/kg): sustainably increased
